This experiment has as its target histone deacetylase HD-1, RPD3 homologue (Zea mays). In words: Inhibition of in vitro enzyme activity measured in a highly purified maize Histone deacetylase 1 preparation.

One may read the IC50 as the concentration needed to halve the response being measured. Higher therefore signals lower potency. In the case of `O=C(CCCCCCC(=O)N[C@@H](Cc1ccccc1)C(=O)NCc1ccccc1)NO` [Octanedioic acid ((S)-1-benzylcarbamoyl-2-phenyl-ethyl)-amide hydroxyamide], the IC50 was found to be 40 nM. In the case of `O=C(CCCCCCC(=O)N[C@@H](Cc1ccccc1)C(=O)NCCc1ccccc1)NO` [Octanedioic acid hydroxyamide ((S)-1-phenethylcarbamoyl-2-phenyl-ethyl)-amide], the half-inhibitory concentration (IC50) was 25 nM.

These data come from BindingDB's records for doi:10.1021/jm0208119 (Westfälische Wilhelms-Universität Münster, 2002).
